# Assays:
# [1] = system: Arg2; experiment: Arg2 protein expression in HAECs (Western blot); type: cell-based, human; settings: MS275 2 μmol/L; CI994 1 μmol/L; MC1568 0.5 μmol/L; PC34051 100 nmol/L; MGCD0103 1 μmol/L
# Description: After 48 hrs of HAEC cells transfection, cells were lysed in ice cold RIPA lysis buffer consisting of 20 mM Tris-HCl at pH 7.5, 150 mM NaCl, 1 mM EDTA, 1 mM EGTA, 1% NP40, 1% sodium deoxycholate, 1 mM Na3VO4, 2.5 mM sodium pyrophosphate, 1 mM 3-glycerophosphate, 1 μg/mL leupeptin, and a 1:1000 diluted protease inhibitor cocktail (Sigma). For immunoprecipitation studies, whole cell lysate lysates were centrifuged at 14,000×g and supernatants were precleared by incubation with Protein A/G-agarose beads for 2 h at 4° C. with rocking. Agarose beads were then pelleted by centrifugation at 1,000×g. FLAG-Arg2 in precleared lysates were immunoprecipitated by incubation overnight at 4° C. with rocking following addition of anti-FLAG antibody (10 μl). Immune complexes were eluted in 2×SDS sample buffer by boiling for 5 minutes before loading into SDS-PAGE. Western blotting analysis was performed by transferring the SDS gel onto a PVDF membrane and visualized using secondary antibodies conjugated to alkaline phosphatases.
# [2] = system: HDAC1A; settings: cited from earlier work
smiles,measurement,setting,value
Cn1c(/C=C/C(=O)NO)ccc1/C=C/C(=O)c1cccc(F)c1 [MC1658],"endothelial Arg2 expression, class-specific HDAC inhibitors",[1],no substantial effects
same,IC50,[2],0.1 µM

# From US20160199463A1, “HDAC2 DEFENDS VASCULAR ENDOTHELIUM FROM INJURY” (The Johns Hopkins University, priority 2014, published 2016)
